Patent publication US20250388544A1, “HETEROAROMATIC INHIBITORS OF ASTACIN PROTEINASES” (VIVORYON THERAPEUTICS N.V., priority 2019, published 2025)

Experiments:
Assay type in all cases: biochemical
[1] = biological target: T1, hMeprin α (Homo sapiens, UniProt Q16819); test: Enzymatic assay, quenched peptide substrate cleavage, method A; conditions: geometric mean (geometric SD factor in parentheses), read-out: Meprin alpha IC50
T1 sequence (Q16819 66-746): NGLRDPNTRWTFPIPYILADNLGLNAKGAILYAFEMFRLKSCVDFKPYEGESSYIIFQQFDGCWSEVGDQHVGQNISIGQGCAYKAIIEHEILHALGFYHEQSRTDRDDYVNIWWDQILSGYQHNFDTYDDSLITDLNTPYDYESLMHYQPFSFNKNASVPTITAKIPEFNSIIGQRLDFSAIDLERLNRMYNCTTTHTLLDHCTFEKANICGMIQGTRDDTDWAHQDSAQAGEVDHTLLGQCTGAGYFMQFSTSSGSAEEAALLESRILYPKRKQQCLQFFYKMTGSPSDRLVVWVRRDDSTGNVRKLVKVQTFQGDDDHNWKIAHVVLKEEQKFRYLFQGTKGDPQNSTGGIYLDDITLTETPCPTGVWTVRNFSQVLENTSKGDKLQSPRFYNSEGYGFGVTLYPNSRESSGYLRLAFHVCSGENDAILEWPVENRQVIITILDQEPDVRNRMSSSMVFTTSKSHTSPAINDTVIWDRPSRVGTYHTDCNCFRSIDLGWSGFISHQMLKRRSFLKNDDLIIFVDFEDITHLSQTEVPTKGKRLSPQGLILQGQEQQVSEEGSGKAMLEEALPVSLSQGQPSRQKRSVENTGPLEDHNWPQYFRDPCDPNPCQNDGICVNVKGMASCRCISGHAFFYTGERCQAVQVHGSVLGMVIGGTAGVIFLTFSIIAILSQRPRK
Method: (§1) The determination of enzymatic activity was based on the cleavage of internally quenched peptide substrates. A typical assay of 250 μl total volume measured in black 96 well plates consisted of 100 μl buffer, 50 μl enzyme at a final concentration of 5e-8 M to 2e-10 M, 50 μl substrate (0.15 to 80 μM, in buffer, 0.5% DMSO) and 50 μl inhibitor solution (in buffer, 1% DMSO). In case of 125 μl assay volume (black 96 half area well plates) all volumes were cut in half. Enzymatic activity of ADAMs was measured in 384 well plates with 60 μl total assay volume consisting of 20 μl inhibitor, 20 μl buffer, 10 μl enzyme and 10 μl substrate.
(§2) Based on method B Ki^(app) values were determined using Morrison's equation. All measurements were performed using a fluorescence plate reader (FLUOSTAR OPTIMA, BMG Labtech) at 30° C. The kinetic parameters were determined at least in duplicates on separate days. The excitation/emission wavelength was 340/420 nm. The kinetic data was evaluated using GRAFIT software (version 7.0.3, Erithacus Software).

[2] = biological target: T2, hMeprin β (Homo sapiens, UniProt Q16820); test: as above; conditions: geometric mean (geometric SD factor in parentheses), read-out: Meprin beta IC50
T2 sequence (Q16820 62-701): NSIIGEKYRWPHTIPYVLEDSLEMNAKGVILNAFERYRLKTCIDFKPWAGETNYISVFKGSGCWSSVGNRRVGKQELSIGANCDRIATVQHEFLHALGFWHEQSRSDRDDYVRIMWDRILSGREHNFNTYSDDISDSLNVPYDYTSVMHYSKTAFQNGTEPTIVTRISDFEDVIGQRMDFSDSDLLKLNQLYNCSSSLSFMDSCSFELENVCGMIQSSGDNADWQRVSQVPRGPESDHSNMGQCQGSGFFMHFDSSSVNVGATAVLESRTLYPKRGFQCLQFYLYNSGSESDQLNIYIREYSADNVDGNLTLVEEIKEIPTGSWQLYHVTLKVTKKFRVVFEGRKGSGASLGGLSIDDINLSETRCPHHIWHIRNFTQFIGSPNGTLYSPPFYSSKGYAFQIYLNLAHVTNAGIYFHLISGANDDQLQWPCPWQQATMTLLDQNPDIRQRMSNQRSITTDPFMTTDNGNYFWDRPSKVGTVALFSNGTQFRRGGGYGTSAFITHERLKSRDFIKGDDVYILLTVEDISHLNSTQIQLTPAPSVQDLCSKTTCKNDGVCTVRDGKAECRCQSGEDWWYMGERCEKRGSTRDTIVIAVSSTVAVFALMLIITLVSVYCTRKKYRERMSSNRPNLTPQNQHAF
Method: as §1, §2

[3] = biological target: T1, hMeprin α; test: Enzymatic assay, quenched peptide substrate cleavage, method B; conditions: geometric mean (geometric SD factor in parentheses); for Ki: Morrison's equation, read-out: Meprin alpha Ki(app); for IC50: read-out: Meprin alpha IC50
Method: as §1, §2

[4] = biological target: T2, hMeprin β; test: as above; conditions: geometric mean (geometric SD factor in parentheses); for Ki: Morrison's equation, read-out: Meprin beta Ki(app); for IC50: read-out: Meprin beta IC50
Method: as §1, §2

[5] = biological target: T3, hADAM 17 (Homo sapiens, UniProt P78536); test: Residual enzyme activity of other metalloproteases; conditions: read-out: Residual enzyme activity ADAM17
T3 construct: purchased R&D systems
Method: as §1

[6] = biological target: T4, hADAM 10 (Homo sapiens, UniProt O14672); test: Residual enzyme activity of other metalloproteases; conditions: read-out: Residual enzyme activity ADAM10
T4 construct: purchased R&D systems
T4 sequence (O14672 214-748): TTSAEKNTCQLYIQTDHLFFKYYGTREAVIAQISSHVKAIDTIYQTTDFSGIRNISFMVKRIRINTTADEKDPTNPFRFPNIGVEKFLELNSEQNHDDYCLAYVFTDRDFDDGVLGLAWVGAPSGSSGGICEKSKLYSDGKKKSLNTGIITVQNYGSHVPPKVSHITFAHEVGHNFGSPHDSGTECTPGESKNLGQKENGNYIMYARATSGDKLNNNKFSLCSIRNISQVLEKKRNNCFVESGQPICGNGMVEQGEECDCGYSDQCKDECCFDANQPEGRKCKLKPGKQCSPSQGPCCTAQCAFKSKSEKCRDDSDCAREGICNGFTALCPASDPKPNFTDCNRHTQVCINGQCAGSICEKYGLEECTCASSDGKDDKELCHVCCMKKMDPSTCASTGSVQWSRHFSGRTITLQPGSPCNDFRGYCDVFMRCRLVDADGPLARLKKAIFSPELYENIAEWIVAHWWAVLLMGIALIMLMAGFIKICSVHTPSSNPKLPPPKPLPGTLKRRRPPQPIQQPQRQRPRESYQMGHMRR
Method: as §1

[7] = biological target: T5, hMMP 9 (Homo sapiens, UniProt P14780); test: Residual enzyme activity of other metalloproteases; conditions: read-out: Residual enzyme activity MMP9
T5 construct: purchased R&D systems
Method: as §1
MMPs were activated prior to measurement by APMA (p-aminophenylmercuric acetate) treatment according to manufacturer's instructions (R&D systems).

T5 sequence (P14780 107-707 limits assumed): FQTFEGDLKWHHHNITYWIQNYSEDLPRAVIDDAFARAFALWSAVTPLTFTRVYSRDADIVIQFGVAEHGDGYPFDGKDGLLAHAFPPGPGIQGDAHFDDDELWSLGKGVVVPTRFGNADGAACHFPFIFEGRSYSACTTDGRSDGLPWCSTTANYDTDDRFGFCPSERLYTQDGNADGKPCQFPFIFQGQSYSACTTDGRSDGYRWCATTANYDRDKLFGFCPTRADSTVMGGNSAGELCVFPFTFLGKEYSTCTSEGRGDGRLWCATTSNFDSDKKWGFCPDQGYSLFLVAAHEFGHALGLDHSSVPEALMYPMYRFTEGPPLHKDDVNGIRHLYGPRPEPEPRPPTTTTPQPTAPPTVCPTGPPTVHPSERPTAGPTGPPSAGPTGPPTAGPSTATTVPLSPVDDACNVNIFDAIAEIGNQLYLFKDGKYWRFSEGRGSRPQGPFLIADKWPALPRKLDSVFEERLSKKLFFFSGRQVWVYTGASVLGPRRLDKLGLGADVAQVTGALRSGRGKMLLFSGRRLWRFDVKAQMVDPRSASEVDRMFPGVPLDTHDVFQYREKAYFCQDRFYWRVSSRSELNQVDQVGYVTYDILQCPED
T3 sequence (P78536 215-824): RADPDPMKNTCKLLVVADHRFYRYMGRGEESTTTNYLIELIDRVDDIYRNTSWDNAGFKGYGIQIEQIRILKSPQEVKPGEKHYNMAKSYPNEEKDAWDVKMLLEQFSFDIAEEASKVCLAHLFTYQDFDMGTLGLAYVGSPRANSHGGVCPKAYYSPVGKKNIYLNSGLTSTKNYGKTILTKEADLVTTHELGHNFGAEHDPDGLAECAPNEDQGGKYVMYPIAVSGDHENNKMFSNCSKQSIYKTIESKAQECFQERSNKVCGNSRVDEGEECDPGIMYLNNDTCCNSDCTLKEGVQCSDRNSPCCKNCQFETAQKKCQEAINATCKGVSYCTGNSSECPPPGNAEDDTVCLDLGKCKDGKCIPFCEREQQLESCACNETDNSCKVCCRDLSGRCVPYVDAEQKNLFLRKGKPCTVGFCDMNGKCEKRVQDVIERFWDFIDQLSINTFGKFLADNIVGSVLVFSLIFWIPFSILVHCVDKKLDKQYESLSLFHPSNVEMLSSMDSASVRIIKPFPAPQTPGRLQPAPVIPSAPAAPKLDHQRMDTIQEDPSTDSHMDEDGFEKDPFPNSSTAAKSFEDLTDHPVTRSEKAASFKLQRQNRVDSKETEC

| Compound | Ki [3] | IC50 [3] | Ki [4] | IC50 [4] | further results |
| --- | --- | --- | --- | --- | --- |
| O=C(CCn1c(-c2ccccc2)cc2ccccc21)NO [Example 26, 3-(2-Phenylindol-1-yl)propanehydroxamic acid] | – | – | – | – | IC50 [1]: 475 nM; IC50 [2]: 13400 nM |
| Cn1nc(-c2ccccc2)c(CC(=O)NO)c1-c1ccccc1 [Example 35, 2-(1-Methyl-3,5-diphenyl-pyrazol-4-yl)ethanehydroxamic acid] | – | – | – | – | IC50 [1]: 9 nM; IC50 [2]: 1220 nM |
| O=C(Cc1c(-c2ccccc2)nn(Cc2ccccc2)c1-c1ccccc1)NO [Example 39, 2-(1-Benzyl-3,5-diphenyl-pyrazol-4-yl)ethanehydroxamic acid] | – | – | – | – | IC50 [1]: 2 nM; IC50 [2]: 254 nM |
| O=C(Cc1c(-c2ccccc2)nn(-c2ccccc2)c1-c1ccccc1)NO [Example 36, 2-(1,3,5-Triphenylpyrazol-4-yl)ethanehydroxamic acid] | – | – | – | – | IC50 [1]: 17 nM; IC50 [2]: 2380 nM |
| O=C(Cc1c(-c2ccc3c(c2)OCO3)n[nH]c1-c1ccc2c(c1)OCO2)NO [Example 57, 2-[3,5-Bis(1,3-benzodioxol-5-yl)-1H-pyrazol-4-yl]ethanehydroxamic acid] | 0.64 nM | 0.72 nM | 113 nM | 119 nM | remaining activity at 10 µM ([5]; 10 μM inhibitor): 57%; remaining activity at 200 µM ([5]; 200 μM inhibitor): 4%; remaining activity at 10 µM ([6]; 10 μM inhibitor): 62%; remaining activity at 200 µM ([6]; 200 μM inhibitor): 0%; remaining activity at 10 µM ([7]; 10 μM inhibitor): 63%; remaining activity at 200 µM ([7]; 200 μM inhibitor): 10% |
| O=C(Cc1c(-c2cc(O)no2)n[nH]c1-c1ccccc1)NO [Example 69, 2-[3-(3-Hydroxyisoxazol-5-yl)-5-phenyl-1H-pyrazol-4-yl]ethanehydroxamic acid] | 16 nM | 17 nM | 14 nM | 14 nM | – |
| O=C(Cc1c(-c2c[nH]nc2C(F)(F)F)n[nH]c1-c1ccccc1)NO [Example 70, 2-[5-Phenyl-3-[3-(trifluoromethyl)-1H-pyrazol-4-yl]-1H-pyrazol-4-yl]ethanehydroxamic acid] | 2 nM | 2 nM | 88 nM | 89 nM | – |
| O=C(Cc1c(-c2cccc(-c3nnn[nH]3)c2)n[nH]c1-c1ccccc1)NO [Example 71, 2-[5-Phenyl-3-[3-(1H-tetrazol-5-yl)phenyl]-1H-pyrazol-4-yl]ethanehydroxamic acid] | 0.71 nM | 0.71 nM | 7 nM | 7 nM | – |
| O=C(Cc1c(-c2cccc(C(=O)O)c2)[nH]nc1[C@H]1CC[C@H](C(=O)O)CC1)NO [Example 78, trans-3-[3-(4-Carboxycyclohexyl)-4-[2-(hydroxyamino)-2-oxo-ethyl]-1H-pyrazol-5-yl]benzoic acid] | 20 nM | 20 nM | 21 nM | 21 nM | – |
| COc1ccc(-c2n[nH]c(-c3ccccc3)c2CC(=O)NO)cc1 [Example 48, 2-[3-(4-Methoxyphenyl)-5-phenyl-1H-pyrazol-4-yl]ethanehydroxamic acid] | 1 nM | 1 nM | 62 nM | 64 nM | – |
| O=C(Cn1c(-c2cccc(C(=O)O)c2)nc2ccccc21)NO [Example 18, 3-[1-[2-(Hydroxyamino)-2-oxo-ethyl]benzimidazol-2-yl]benzoic acid] | 62 nM | 63 nM | 160 nM | 164 nM | – |
| N#Cc1ccc(-c2n[nH]c(-c3ccccc3)c2CC(=O)NO)cc1 [Example 56, 2-[3-(4-Cyanophenyl)-5-phenyl-1H-pyrazol-4-yl]ethanehydroxamic acid] | 14 nM | 14 nM | 995 nM | 1020 nM | – |
| N#Cc1cccc(-c2n[nH]c(-c3ccccc3)c2CC(=O)NO)c1 [Example 55, 2-[3-(3-Cyanophenyl)-5-phenyl-1H-pyrazol-4-yl]ethanehydroxamic acid] | 5 nM | 5 nM | 335 nM | 346 nM | – |
| O=C(Cc1c([C@@H]2CCCC[C@@H]2C(=O)O)n[nH]c1-c1ccccc1)NO [Example 73, (1S,2R)-2-[4-[2-(Hydroxyamino)-2-oxoethyl]-5-phenyl-1H-pyrazol-3-yl]cyclohexanecarboxylic acid] | 0.26 nM | 0.34 nM | 33 nM | 33 nM | – |
| O=C(Cc1c(-c2ccc3c(c2)OCO3)n[nH]c1-c1ccc(C(=O)O)cc1)NO [Example 62, 4-[3-(1,3-Benzodioxol-5-yl)-4-[2-(hydroxyamino)-2-oxo-ethyl]-1H-pyrazol-5-yl)benzoic acid] | 10 nM | 11 nM | 93 nM | 94 nM | – |
| O=C(Cc1c(-c2ccc(Cl)c(O)c2F)n[nH]c1-c1ccc(Cl)c(O)c1F)NO [Example 60, 2-[3,5-Bis(4-chloro-2-fluoro-3-hydroxy-phenyl)-1H-pyrazol-4-yl]ethanehydroxamic acid] | 4 nM | 4 nM | 14 nM | 14 nM | – |
| O=C(Cc1c(-c2ccccc2)[nH]nc1[C@H]1CC[C@@H](C(=O)O)CC1)NO [Example 75, cis-4-[4-[2-(Hydroxyamino)-2-oxo-ethyl)-5-phenyl-1H-pyrazol-3-yl]cyclohexanecarboxylic acid] | 10 nM | 10 nM | 35 nM | 35 nM | – |
| O=C(Cc1c(-c2ccc(C(=O)O)cc2)n[nH]c1-c1ccc(C(=O)O)cc1)NO [Example 59, 4-[3-(4-Carboxyphenyl)-4-[2-(hydroxyamino)-2-oxo-ethyl]-1H-pyrazol-5-yl]benzoic acid] | 56 nM | 56 nM | 116 nM | 128 nM | – |
